Results reported in PubChem BioAssay AID1919017 (Molecular Pharmacology Branch, DTP, NCI, 2023).

Tested on: SW1271 complex spheroids with HUVEC/MSC, growth, % test/control
Experiment: Anticancer human tumor SW1271 cell line growth inhibition [AhR];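 note: spheroids exposed to agents for 7 days before readout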
Conditions: for IC50: curve of first compound; for viability, T/C: stronger effect = lower value
Summary of the method: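 Spheroids combined tumor cells with HUVEC endothelial cells and human MSCs as stroma. AhR antagonists were paired with standard or investigational drugs, each dosed in half-log steps down from near clinical Cmax, or from 10 microM where Cmax was unknown.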

[1] = second compound 0.1 µM, first compound 0.000949 µM
[2] = second compound 0.1 µM, first compound 0.003 µM
[3] = second compound 0.1 µM, first compound 0.00949 µM
[4] = second compound 0.1 µM, first compound 0.03 µM
[5] = second compound 0.1 µM, first compound 0.0949 µM
[6] = second compound 0.1 µM, first compound 0.3 µM
[7] = second compound 0.316 µM, first compound 0.000949 µM
[8] = second compound 0.316 µM, first compound 0.003 µM
[9] = second compound 0.316 µM, first compound 0.00949 µM
[10] = second compound 0.316 µM, first compound 0.03 µM
[11] = second compound 0.316 µM, first compound 0.0949 µM
[12] = second compound 0.316 µM, first compound 0.3 µM
[13] = second compound 1 µM, first compound 0.000949 µM
[14] = second compound 1 µM, first compound 0.003 µM
[15] = second compound 1 µM, first compound 0.00949 µM
[16] = second compound 1 µM, first compound 0.03 µM
[17] = second compound 1 µM, first compound 0.0949 µM
[18] = second compound 1 µM, first compound 0.3 µM
[19] = second compound 3.16 µM, first compound 0.000949 µM
[20] = second compound 3.16 µM, first compound 0.003 µM
[21] = second compound 3.16 µM, first compound 0.00949 µM
[22] = second compound 3.16 µM, first compound 0.03 µM
[23] = second compound 3.16 µM, first compound 0.0949 µM
[24] = second compound 3.16 µM, first compound 0.3 µM
[25] = second compound 10 µM, first compound 0.000949 µM
[26] = second compound 10 µM, first compound 0.003 µM
[27] = second compound 10 µM, first compound 0.00949 µM
[28] = second compound 10 µM, first compound 0.03 µM
[29] = second compound 10 µM, first compound 0.0949 µM
[30] = second compound 10 µM, first compound 0.3 µM

In the case of `CC(C)CC(NC(=O)C(Cc1ccccc1)NC(=O)c1cnccn1)B(O)O` (stereo not given) + Cc1cncc(-c2nc(NCCc3c[nH]c4ccccc34)c3ncn(C(C)C)c3n2)c1, the IC50 (second compound 0.1 µM) is reported as 6.11 nM, the IC50 (second compound 0.316 µM) is reported as 5.7 nM and the IC50 (second compound 1 µM) is reported as 6.18 nM. For the same compound, the IC50 (second compound 3.16 µM) was 5.61 nM, the IC50 (second compound 10 µM) was 3.96 nM and the viability, T/C [1] was 122%. For the same compound, the viability, T/C [2] was 112%, the viability, T/C [3] was 11.9% and the viability, T/C [4] was 0.91%. For the same compound, the viability, T/C [5] was 0.33%, the viability, T/C [6] was 0.46% and the viability, T/C [7] was 84.3%. It also gave a viability, T/C [8] of 113%, a viability, T/C [9] of 11.3% and a viability, T/C [10] of 0.73%. For the same compound, the viability, T/C [11] was 0.67%, the viability, T/C [12] was 0.41% and the viability, T/C [13] was 113%. It also gave a viability, T/C [14] of 112%, a viability, T/C [15] of 13.4% and a viability, T/C [16] of 1.13%. For the same compound, the viability, T/C [17] was 0.75%, the viability, T/C [18] was 0.48% and the viability, T/C [19] was 107%. The viability, T/C [20] was 102%, the viability, T/C [21] was 5.96% and the viability, T/C [22] was 0.63%. For the same compound, the viability, T/C [23] was 0.88%, the viability, T/C [24] was 0.55% and the viability, T/C [25] was 62.2%. For the same compound, the viability, T/C [26] was 69.2%, the viability, T/C [27] was 0.81% and the viability, T/C [28] was 0.31%. It also gave a viability, T/C [29] of 0.34% and a viability, T/C [30] of 0.3%.
Compound `CCc1c2c(nc3ccc(O)cc13)-c1cc3c(c(=O)n1C2)COC(=O)[C@]3(O)CC` + Cc1cncc(-c2nc(NCCc3c[nH]c4ccccc34)c3ncn(C(C)C)c3n2)c1 has an IC50 (second compound 0.1 µM) of over 300 nM, an IC50 (second compound 0.316 µM) of over 300 nM and an IC50 (second compound 1 µM) of 255 nM. For the same compound, the IC50 (second compound 3.16 µM) was 162 nM, the IC50 (second compound 10 µM) was 1.82 nM and the viability, T/C [1] was 86.5%. The viability, T/C [2] was 92.8%, the viability, T/C [3] was 76.6% and the viability, T/C [4] was 57.4%. For the same compound, the viability, T/C [5] was 59.5%, the viability, T/C [6] was 57.8% and the viability, T/C [7] was 69.5%. For the same compound, the viability, T/C [8] was 79.8%, the viability, T/C [9] was 83% and the viability, T/C [10] was 58.1%. It also gave a viability, T/C [11] of 52.2%, a viability, T/C [12] of 48.9% and a viability, T/C [13] of 116%. It also gave a viability, T/C [14] of 104%, a viability, T/C [15] of 71% and a viability, T/C [16] of 74.2%. For the same compound, the viability, T/C [17] was 64.1%, the viability, T/C [18] was 50.3% and the viability, T/C [19] was 92%. It also gave a viability, T/C [20] of 90.2%, a viability, T/C [21] of 75.2% and a viability, T/C [22] of 63.6%. For the same compound, the viability, T/C [23] was 60.8%, the viability, T/C [24] was 41.5% and the viability, T/C [25] was 55.5%. The viability, T/C [26] was 45%, the viability, T/C [27] was 37.2% and the viability, T/C [28] was 27.9%. It also gave a viability, T/C [29] of 24% and a viability, T/C [30] of 25.9%.
For `COc1cc(Nc2ncc3c(n2)-c2ccc(Cl)cc2C(c2c(F)cccc2OC)=NC3)ccc1C(=O)O` + Cc1cncc(-c2nc(NCCc3c[nH]c4ccccc34)c3ncn(C(C)C)c3n2)c1, the IC50 (second compound 0.1 µM) was over 10000 nM, the IC50 (second compound 0.316 µM) was over 10000 nM and the IC50 (second compound 1 µM) was over 10000 nM. It also gave an IC50 (second compound 3.16 µM) of over 10000 nM, an IC50 (second compound 10 µM) of under 31.6 nM and a viability, T/C (second compound 0.1 µM, first compound 0.0316 µM) of 92.7%. It also gave a viability, T/C (second compound 0.1 µM, first compound 0.1 µM) of 91.6%, a viability, T/C (second compound 0.1 µM, first compound 0.316 µM) of 98.6% and a viability, T/C (second compound 0.1 µM, first compound 1 µM) of 93.9%. The viability, T/C (second compound 0.1 µM, first compound 3.16 µM) was 78.3%, the viability, T/C (second compound 0.1 µM, first compound 10 µM) was 67.7% and the viability, T/C (second compound 0.316 µM, first compound 0.0316 µM) was 91%. For the same compound, the viability, T/C (second compound 0.316 µM, first compound 0.1 µM) was 87.8%, the viability, T/C (second compound 0.316 µM, first compound 0.316 µM) was 92% and the viability, T/C (second compound 0.316 µM, first compound 1 µM) was 91%. The viability, T/C (second compound 0.316 µM, first compound 3.16 µM) was 98.4%, the viability, T/C (second compound 0.316 µM, first compound 10 µM) was 57.5% and the viability, T/C (second compound 1 µM, first compound 0.0316 µM) was 81.5%. The viability, T/C (second compound 1 µM, first compound 0.1 µM) was 87.2%, the viability, T/C (second compound 1 µM, first compound 0.316 µM) was 88.2% and the viability, T/C (second compound 1 µM, first compound 1 µM) was 88.6%. For the same compound, the viability, T/C (second compound 1 µM, first compound 3.16 µM) was 81.3%, the viability, T/C (second compound 1 µM, first compound 10 µM) was 56.2% and the viability, T/C (second compound 3.16 µM, first compound 0.0316 µM) was 95.1%. The viability, T/C (second compound 3.16 µM, first compound 0.1 µM) was 87.5%, the viability, T/C (second compound 3.16 µM, first compound 0.316 µM) was 91.9% and the viability, T/C (second compound 3.16 µM, first compound 1 µM) was 102%. It also gave a viability, T/C (second compound 3.16 µM, first compound 3.16 µM) of 78.9%, a viability, T/C (second compound 3.16 µM, first compound 10 µM) of 67.9% and a viability, T/C (second compound 10 µM, first compound 0.0316 µM) of 36.1%. For the same compound, the viability, T/C (second compound 10 µM, first compound 0.1 µM) was 50.7%, the viability, T/C (second compound 10 µM, first compound 0.316 µM) was 49.5% and the viability, T/C (second compound 10 µM, first compound 1 µM) was 50.1%. The viability, T/C (second compound 10 µM, first compound 3.16 µM) was 42.5% and the viability, T/C (second compound 10 µM, first compound 10 µM) was 40.4%.
